Source: patent publication US20180369186A1, “METHOD FOR MODULATING AUTOPHAGY AND APPLICATIONS THEREOF” (JAWAHARLAL NEHRU CENTRE FOR ADVANCED SCIENTIFIC RESEARCH, priority 2015, published 2018)

Experiments:
[1] = test system: LC3-II; test: LC3 processing assay in SH-SY5Y cells; assay type: cell-based, human; settings: 5 μM, 2 h; untreated vs treated
Description: The autophagy assays are performed by seeding equal numbers of sub-confluent 1-HeLa or SH-SY5Y cells in 6-well dishes and allowed to attach for 24 h, then treated with XCT 790 (5 μM) and/or 3-MA (5 mM) and/or lithium chloride (10 mM) in fed condition for 2 h. After treatments, the cell lysates are analyzed by immunoblotting.
Mammalian cell lysates preparation: After treatments, cells are collected in Laemmli buffer to perform LC3 processing assay, P70S6K, AMPK, ULK1 and 4E-BP1 immunoblotting. Samples are electrophoresed onto SDS-PAGE (8-15%) and then transferred onto PVDF (Bio-Rad) membrane through Transblot turbo (Bio-Rad). Blots are stained with Ponceau S, then probed with appropriate primary antibodies at 4° C. for overnight and subsequently HRP-conjugated secondary antibody. Signals are attained using enhanced chemiluminescence substrate (Clarity, Bio-Rad) and imaged using a gel documentation system (G Box, Syngene) and then bands are quantitated using Image software (NIH).

[2] = test system: p62, MAP1LC3B-II; test: p62 and MAP1LC3B immunoblotting in Atg5+/+ and Atg5−/− MEFs; assay type: cell-based, mouse; settings: 5 μM, 24 h
Description: Western blotting is performed using standard methods. Immunoblotting in MEFs is carried out as described previously. Dilutions of primary antibodies used are as follows: Anti-p62 1:1000 (Progen Biotechnik, GP62-C), Anti-MAP1LC3B 1:3000 (Nevus Biologicals, NB100-2220) and Anti-GAPDH (Cell Signalling Technologies, 2118S). Secondary antibodies conjugated to HRP are used at 1:10000 dilution as follows: Anti-Guinea-Pig-HRP (Abeam, ab50210) and Anti-Rabbit-HRP (Calbiochem, 401393).

[3] = test system: p62/SQSTM1; test: p62 aggregate immunofluorescence in MEFs; assay type: cell-based, mouse; settings: 5 μM, 24 h and 48 h
Description: Immunofluorescence analysis in MEFs is carried out by fixing the cells with 4% methanol free paraformaldehyde for 15 minutes, permeabilised with 0.5% TritonX-100 in PBS for 10 minutes, and then blocking with 5% FES in PBS for 30 minutes at room temperature, along with PBS washes in between every steps. Anti-p62 antibody (Progen Biotechnik, GP62-C) is used at 1:250 dilution in […] in PBS and incubated overnight at 4° C. Cells are then washed and incubated with goat anti-guinea pig Alexa 594 (ThermoFisher Scientific, A-15 11076) secondary antibody at 1:1000 dilution for 1 hour at room temperature. Cells are washed, counterstained with DAPI (ThermoFisher Scientific, D1306) in PBS for 5 minutes, washed again and then mounted using Prolong diamond anti-fade reagent (ThermoFisher Scientific, P36970). Slides are imaged using a Zeiss LSM 510 Meta Confocal Microscope using 100× objective. Analysis is performed by assessing for the percentage of cells displaying an accumulation of endogenous p62-positive aggregates.
Analysis of p62 aggregates is done as described previously. […] The percentage of cells with increased p62+ aggregates is quantified by assessing 200 cells per condition from independent experiments, in which a cell with an accumulation of p62+ aggregates was given a score of 1 whereas a cell having basal (low) levels of p62+ aggregates was given a score of 0.

[4] = test system: lace plant (Aponogeton madagascariensis) cells; test: Lace plant leaf MDC staining of punctate structures; assay type: cell-based
Description: Axenic lace plant cultures are grown in magenta boxes and prepared according to Gunawardena et al. Leaves in the window stage are removed from the corm and rinsed thoroughly with distilled water prior to being sectioned into 2 mm^2 pieces. For starvation treatments, window stage leaves are removed from the plant, placed in distilled water and kept in the dark overnight.
Leaf sections are stained with monodansylcadaverine (MDC; 300 μM) (Sigma, D4008) and simultaneously treated with autophagy modulators for 2 hours in the dark. (1 hour vacuum infiltration at 15 psi). Treatment times, along with stain and modulator applications are optimized using concentration gradients followed by microscopy. The optimized concentrations are 5 μM rapamycin (Enzo Life Sciences (BML A275-0005), 5 μM wortmannin (Santa Cruz Biotechnology, sc-3505), 1 μM concanamycin A (Santa Cruz Biotechnology, sc-202111), 50 μM Bay 11 (Sigma, B5556) and 50 μM ZPCK (Sigma, 860794).
Tissue sections are then rinsed and mounted in distilled water prior to being scanned using a Nikon Eclipse Ti confocal microscope (Nikon 40X/1.30, Plan Fluor, 405 nm excitation and 450/30 nm emission). Areoles in the early phases of PCD are scanned to avoid cellular debris. The mean number of puncta are quantified for each treatment group with a minimum of four independent experiments using NIS Elements Advanced Research software. Additionally, starvation treatment leaves are also exposed to 5 μM, wortmannin, 50 μM Bay11 and 50 μM ZPCK treatments and then qualitatively assessed via confocal microscopy.

[5] = test system: aminopeptidase; test: Protease protection assay with aminopeptidase; assay type: cell-based, S. cerevisiae; settings: starvation
Description: To elucidate the step of action of Bay11, a protease protection assay is performed using aminopeptidase as a marker, which is also a substrate for starvation-induced autophagy. Untreated cells in presence of proteinase K show both the precursor as well as the matured form due to the autophagosome-sequestered membrane-protected cargo and the cytosolic free form, respectively (FIGS. 22D and 22E). […] Combined treatment with Proteinase K and triton X-100 results in conversion of all the precursor form to the matured form in both treated and untreated groups.

[6] = test system: Pot1-GFP (peroxisomes); test: Pot1-GFP pexophagy assay; assay type: cell-based, S. cerevisiae
Description: Pot1-GFP positive strains are allowed to grow till the A600 reached 0.8-1 in YPD. Peroxisome biogenesis is induced by growing these cells in oleate medium (0.1% oleate, 0.5% Tween-40, 0.25% yeast extract, 0.5% peptone, and 5 mM phosphate buffer) for 12hours. Cells are harvested, washed twice to remove traces of oleate and transferred to starvation medium without nitrogen, at inoculum density A600 3, to induce pexophagy. Cells are collected at various time intervals after pexophagy induction and processed by TCA method.
Pot1-GFP positive strains are allowed to grow in yeast extract peptone dextrose (YPD) (2% dextrose, 2% peptone and 1% yeast extract) till the Absorbance at 600 nm reaches 0.6-0.8. Peroxisome biogenesis is induced by growing these cells in YPG medium (1% yeast extract, 2% peptone, 3% glycerol) for 12 hours.
Cells are harvested, washed twice to remove traces of oleate and transferred to starvation medium with and without Acacetin, at. inoculum density Absorbance at 600 nm 3/ml, to induce pexophagy. Cells are collected at various time intervals after pexophagy induction and processed by TCA precipitation.

Compound: COc1cc(C=C(C#N)C(=O)Nc2nnc(C(F)(F)F)s2)ccc1OCc1ccc(C(F)(F)F)cc1C(F)(F)F [XCT 790, 3-[4-(2,4-Bis-trifluoromethylbenzyloxy)-3-methoxyphenyl]-2-cyano-N-(5-trifluoromethyl-1,3,4-thiadiazol-2-yl)acrylamide]
- accumulation of LC3-II levels [1]: ~2.5 fold

Compound: Cc1ccc(S(=O)(=O)/C=C/C#N)cc1 [Bay11, 3-[(4-methylphenyl)sulfonyl]-(2E)-propenenitrile]
- MAP1LC3B-II levels in Atg5+/+ MEFs [2]: reduces MAP1LC3B-II levels
- endogenous p62 levels in Atg5+/+ MEFs [2]: significantly increases endogenous p62 levels
- endogenous p62 levels in Atg5−/− MEFs [2]: no significant effect
- endogenous p62 aggregates [3]: significant accumulation of endogenous p62 aggregates
- mean number of punctate structures per cell (MDC) ([4]; 2 hours, 5 μM wortmannin, 50 μM Bay11, 1 μM concanamycin A, rapamycin, 50 μM ZPCK, control 0.99±0.12): 0.28±0.07
- puncta in overnight starvation leaves ([4]; overnight starvation combined with 5 μM wortmannin, 50 μM Bay11 or 50 μM ZPCK): fewer puncta
- form of aminopeptidase upon proteinase K treatment [5]: only the mature form of aminopeptidase
- degradation of peroxisomes (Pot1-GFP) ([6]; starvation): delay the degradation of peroxisomes
- localisation of peroxisomes (fluorescence microscopy) ([6]; starvation, 25 μM Bay11, 50 μM ZPCK): accumulate outside the vacuoles
- free GFP release from Pot1-GFP ([6]; wild type cells, up to 6 hours of starvation): No free GFP release
